Reference: patent US20090291857A1, “METHODS TO IDENTIFY INHIBITORS OF THE UNFOLDED PROTEIN RESPONSE” (THE BOARD OF TRUSTEES OF THE LELAND STANFORD JUNIOR …, priority 2006, published 2009)

Assays:
[1] = test system: IRE1α/XBP-1 pathway (XBP1-luciferase reporter); test: High throughput XBP-luciferase reporter screen, tunicamycin/thapsigargin induced (HTS and IRE IC50); format: cell-based, human
Procedure: Specifically, HT1080 fibrosarcoma cells stably transfected with the unspliced XBP-1-luciferase reporter construct (3000/well) were plated onto a solid white 384 well microplate with a multidrop dispenser (40 μL per well). The plates were then placed into an automated incubator. After 24 hours of growth, a mixture of tunicamycin (1 μg/ml) and thapsigargin (100 nM) inducers were added, and candidate compounds were then added to the plates. After 24 hours, luciferase reagent (10 μl) was added to each well and the plates were read in a Molecular Devices Analyst GT (0.2 second read per well).
As described above in Example 2, HT1080 fibrosarcoma cells stably expressing the XBP-luciferase reporter were plated in a 384 well microplate (4000 cells/well). After 24 hours, cells were treated with a mixture of tunicamycin (4 μg/ml) and thapsigargin (0.4 μM), followed by the addition of one compound per well (10 μM). We screened a total of 66,000 diverse molecules obtained from Specs, Chembridge and ChemRX. Twenty-four hours post-induction, BriteGlo luciferase substrate (10 μl) was added to each well and the signal intensity determined in a plate reader (0.2 s read per well). […] We retested 431 compounds from the initial screen, and selected 58 compounds for additional analysis, including calculation of IC50 values and inhibition of a CMV-luciferase reporter.
A. XBP-luciferase reporter construct. Firefly luciferase was inserted downstream of the IRE1α splice site in human XBP-1 to enable the conditional translation of luciferase under ER stress in an IRE1α-dependent manner. B. Selective inhibition of the XBP-luciferase reporter by irestatin 9389. HT1080 human fibrosarcoma cells stably expressing the XBP-luciferase reporter or CMV-luciferase were cultured in the presence of Tm (4 μg/ml) and Tg (0.4 μM) and irestatin 9389 at the indicated concentrations. After 24 hours, luciferase activity was analyzed in an automated plate reader. For each cell line, values are expressed as the percent inhibition of the median for Tm/Tg-treated wells, corrected for background. C. Structure of irestatin 9389. D. XBP-luciferase reporter assay. HT1080 cells stably expressing the XBP-luciferase reporter were exposed to Tm (4 μg/ml) for 24 hours or hypoxia (0.1% oxygen) for 24 or 48 hours, in the presence of DMSO or irestatin 9389 (1 μM) as indicated. Values are expressed as the fold increases over uninduced levels. E. 5X-UPRE reporter assay. HT1080 cells were co-transfected with 5X-UPRE luciferase and SV40-beta-gal reporter plasmids, followed by exposure to Tm or hypoxia as in D. For each condition, luciferase activity is normalized to beta-galactosidase expression levels as an internal control for transfection efficiency. F. Western immunoblot analysis of XBP-1s. HT1080 cells were left untreated (lane 2) or exposed to Tm (4 μg/ml) for 20 hours in the presence of DMSO vehicle (lane 1) or the indicated irestatins (2 μM; lanes 3-6). Cell lysates were resolved by SDS-PAGE and immunoblotting using antisera specific for XBP-1s (top panel) or actin and GAPDH (bottom panel) as loading controls. […] HT1080 cells were treated with DMSO or exposed to irestatin 9389 (2 μM; lane 3) in normoxia (N) or under hypoxia for 24 hours (H 24; lanes 2,3). Cells were harvested, lysed, and analyzed by immunoblotting with antisera specific for HIF-1α (top), XBP-1s (middle) or actin (bottom). H. Northern blot analysis of XBP-1s transcription targets. Cells were exposed to Tm (4 μg/ml) or hypoxia for 24 hours (H 24) in the absence or presence of irestatin 9389 (2 μM). Total RNA was analyzed by Northern blotting using radiolabeled probes specific for P58^IPK or DER-1. Total rRNA is shown as loading control.
As described above, a HT1080 fibrosarcoma cell line stably expressing a fusion of unprocessed XBP-1 inserted upstream of firefly luciferase has been developed to identify small molecule inhibitors of the IRE1α/XBP-1 signaling module. […]

JNK1 = JNK1 activation under ER stress; format: cell-based, human; conditions: 2.5 μM, 2 hour preincubation, Tm 4 μg/ml 1.5 hrs
Procedure: HT1080 cells were exposed to DMSO vehicle (lane 1), irestatin 9389 (2.5 μM; lane 2) for 16 hours or Tm (5 μg/ml; lane 3) for 8 hours. Following treatments, cells were harvested, lysed, and analyzed by immunoblotting using anti-Grp78 antibody (top) or anti-actin (bottom) as a loading control. B. Effect of irestatin 9389 on IRE1α expression and kinase function. HT1080 cells were preincubated for 16 hours with either vehicle or irestatin 9389 (2.5 μM), followed by addition of Tm (5 μg/ml) for the indicated times. Cell lysates were analyzed by Western immunoblotting using anti-IRE1α (bottom) or anti-phospho-IRE1α antibodies (top). C. Effect of irestatins on JNK1 activation under ER stress. HT1080 cells were untreated (lane 1), exposed to TNF-α (10 ng/ml, 10 min), or Tm (4 μg/ml, 1.5 hrs) (lanes 3-8) following a 2 hour preincubation in the presence of vehicle (lane 3) or the indicated irestatins (2.5 μM; lanes 4-8). Lysates were analyzed by Western blot using antisera specific for phospho-JNK1 (top) or total JNK1 (bottom). […] F. Quantification of RNA cleavage kinetics. […] Samples were analyzed as in (E).
Activation of IRE1α is preceded by ATP binding and autophosphorylation, and the IRE1α kinase is required for endonuclease activity. […] Cells were then harvested at regular intervals, and activation of the IRE1α kinase was assessed by immunoblotting using anti-phospho-IRE1α antisera.

For Cc1csc(NC(=O)CSc2nc3c(c(C(F)(F)F)c2C#N)CCC3)n1 [Compound 9389], the “inhibition of IRE1α / IRE1α/XBP-1 signaling module in screen” value ([1]; HT1080 XBP-luciferase, Tm/Tg) was “potent and specific inhibition of IRE1α”, the inhibition at 10 µM ([1]; Homo sapiens, 24 h, inhibition of XBP1-luciferase reporter, read-out: Activity Class) was 75 to 100% and the IC50 ([1]; Homo sapiens, HT-1080, 24 h, HT1080, Tm 4 μg/ml and Tg 0.4 μM, 24 hours, read-out: mean inhibitory concentration (IC50) of XBP-luciferase activity) was ~25 nM. For the same molecule, the inhibition at 20 µM ([1]; Homo sapiens, IRE IC50 assay, Conc 20 uM) was 87.1% and the “phosphorylation of JNK1 during Tm-induced ER stress” value (JNK1) was “failed to block the phosphorylation of JNK1”.
